The data set in a line: TIMS collisional cross section (CCS, N2) of the lipid ion; higher = larger ion cross section. The following applies: ionization mode: positive, one isomer drawn.

Molecules are shown by their SMILES. ± gives the standard deviation of the averaged measurements.

On to `CCCCCC/C=C\CCCCCCCC(=O)OC[C@H](COC(=O)CCCCCCC/C=C\CCCCCCC)OC(=O)CCCCCCCCCCCCCCCC` [TG 16:1_17:0_17:1] (ion (formula + adduct): [C53H98O6+NH4] 1+), for which the “TIMS collisional cross section” value (sample type: HeLa) was 315.7 Å².

Take `CCCCCCCCCCCCCCCCCCCC(=O)OC[C@@H](COC(=O)CCCCCCCCCCCCCCC)OC(=O)CCCCCCCCCCCCCCCCC` [TG 16:0_18:0_20:0] (ion (formula + adduct): [C57H110O6+NH4] 1+): the “TIMS collisional cross section” value is, setting by setting: (sample type: HeLa) 332.05 ± 0.21 Å²; (sample type: plasma) 332.5 ± 0.14 Å².

For the molecule `CC/C=C\C/C=C\C/C=C\C/C=C\C/C=C\C/C=C\CCC(=O)OC[C@@H](COC(=O)CCCCCCCCCCCCCCC)OC(=O)CC/C=C\C/C=C\C/C=C\C/C=C\C/C=C\C/C=C\CC` [TG 16:0_22:6_22:6] (ion (formula + adduct): [C63H98O6+NH4] 1+), the “TIMS collisional cross section” value (sample type: Liver) is recorded as 331.6 Å².

For the molecule `CC/C=C\C/C=C\C/C=C\C/C=C\C/C=C\C/C=C\CCC(=O)OC[C@@H](COC(=O)CCCCCCC/C=C\C/C=C\CCCCC)OC(=O)CCCCCCC/C=C\C/C=C\CCCCC` [TG 18:2_18:2_22:6] (ion (formula + adduct): [C61H98O6+NH4] 1+), the “TIMS collisional cross section” value reads like this: (sample type: Liver) 327.3 Å²; (sample type: plasma) 327 Å².

As to `CCCCC/C=C\C/C=C\CCCCCCCC(=O)O[C@H](COC(=O)CCCCCCC/C=C\CCCCCCCC)COP(=O)(O)OCCN` [PE 18:1_18:2@] (ion (formula + adduct): [C41H76NO8P+H] 1+), the “TIMS collisional cross section” value (sample type: HeLa) was determined as 277.9 Å² and the “TIMS collisional cross section” value (sample type: plasma) amounted to 275.8 Å².

Consider `CC/C=C\C/C=C\C/C=C\C/C=C\C/C=C\C/C=C\CCC(=O)OC[C@@H](COC(=O)CCCCCCCCCCCCCCC)OC(=O)CCCCCCC/C=C\CCCCCCC` [TG 16:0_17:1_22:6] (ion (formula + adduct): [C58H98O6+NH4] 1+), for which the “TIMS collisional cross section” value (sample type: HeLa) is 324.8 Å².

Turning to `CCCCCCCC/C=C\CCCCCCCC(=O)O[C@H](COCCCCCCCCCCCCCCCC)COP(=O)([O-])OCC[N+](C)(C)C` [PC O- 16:0@_18:1] (ion (formula + adduct): [C42H84NO7P+H] 1+), for the setting “sample type: HeLa”, the “TIMS collisional cross section” value was found to be 290.7 Å².

In the case of `CCCCCC/C=C/CCCCCCCC(=O)OC[C@@H](O)COP(=O)([O-])OCC[N+](C)(C)C` [LPC 16:1] (ion (formula + adduct): [C24H48NO7P+H] 1+), the “TIMS collisional cross section” value (sample type: HeLa) was 226 Å², the “TIMS collisional cross section” value (sample type: Liver) amounted to 224.5 Å² and the “TIMS collisional cross section” value (sample type: plasma) is given as 225.13 ± 1.1 Å².

As to `CCCCC/C=C\C/C=C\CCCCCCCC(=O)O[C@H](COC(=O)CCCCCCCCCCCCCCCC)COP(=O)([O-])OCC[N+](C)(C)C` [PC 17:0_18:2] (ion (formula + adduct): [C43H82NO8P+H] 1+), under “sample type: Liver”, the “TIMS collisional cross section” value is listed as 288.1 Å².

Regarding `CCCCC/C=C\C/C=C\CCCCCCCCCC(=O)O[C@H](COC(=O)CCCCCCC/C=C\CCCCCCCC)COP(=O)(O)OCCN` [PE 18:1@_20:2] (ion (formula + adduct): [C43H80NO8P+H] 1+), the “TIMS collisional cross section” value (sample type: Liver) is on record as 283.3 Å².

In the case of `CCCCC/C=C\C/C=C\C/C=C\C/C=C\CCCC(=O)O[C@H](COC(=O)CCCCCCC/C=C\CCCCCCCC)COC(=O)CCCCCCCCCCC/C=C\CCCCCCCC` [TG 18:1_20:4_22:1] (ion (formula + adduct): [C63H110O6+NH4] 1+), where the note is “sample type: Liver”, the “TIMS collisional cross section” value is 339.9 Å².

Regarding `CCCCC/C=C\C/C=C\CCCCCCCC(=O)OC[C@@H](COC(=O)CCCCCCCCCCCCC)OC(=O)CCCCCCCCCCCCCCC` [TG 14:0_16:0_18:2] (ion (formula + adduct): [C51H94O6+NH4] 1+), the “TIMS collisional cross section” value (sample type: Liver) amounted to 308.9 Å².

With `CCCCC/C=C\C/C=C\C/C=C\C/C=C\CCCC(=O)OC[C@@H](COC(=O)CCCCCCC/C=C\C/C=C\CCCCC)OC(=O)CCCCCCC/C=C\C/C=C\CCCCC` [TG 18:2_18:2_20:4] (ion (formula + adduct): [C59H98O6+NH4] 1+), the “TIMS collisional cross section” value (sample type: Liver) is recorded as 323.3 Å².

Regarding `CCCCC/C=C\C/C=C\CCCCCCCC(=O)OC[C@@H](COC(=O)CCCCCCCCCCCCCCCCC)OC(=O)CCCCCCC/C=C\CCCCCCCC` [TG 18:0_18:1_18:2] (ion (formula + adduct): [C57H104O6+NH4] 1+), the “TIMS collisional cross section” value runs as follows: (sample type: HeLa) 325.1 Å²; (sample type: Liver) 326.4 Å²; (sample type: plasma) 326.25 ± 0.49 Å².

For the molecule `CCCCCCCCCCCCCC(=O)OC[C@@H](COC(=O)CCCCCCCCCCCC)OC(=O)CCCCCCCCCCCCC` [TG 13:0_14:0_14:0] (ion (formula + adduct): [C44H84O6+NH4] 1+), the “TIMS collisional cross section” value (sample type: plasma) was found to be 292.3 Å².

Consider `CC/C=C\C/C=C\C/C=C\C/C=C\C/C=C\C/C=C\CCC(=O)OC[C@@H](COC(=O)CCCCCCC/C=C\CCCCCC)OC(=O)CC/C=C\C/C=C\C/C=C\C/C=C\C/C=C\C/C=C\CC` [TG 16:1_22:6_22:6] (ion (formula + adduct): [C63H96O6+NH4] 1+), for which, where the note is “sample type: HeLa”, the “TIMS collisional cross section” value worked out at 329.5 Å².

For `CCCCCCCCCCC/C=C/[C@@H](O)[C@H](COP(=O)([O-])OCC[N+](C)(C)C)NC(=O)CCCCCCCCCCCCCCC` [SM d16:1_16:0@] (ion (formula + adduct): [C37H75N2O6P+H] 1+), the “TIMS collisional cross section” value (sample type: plasma) was 279.1 Å².

On to `CC(C)CCC[C@@H](C)[C@H]1CC[C@H]2[C@@H]3C(=O)C=C4C=CCC[C@]4(C)[C@H]3CC[C@]12C` [3,5-cholestadien-7-one] (ion (formula + adduct): [C27H42O+H] 1+), for which the “TIMS collisional cross section” value is listed as 203.63 ± 0.75 Å² (sample type: HeLa) and 203.1 Å² (sample type: plasma).

On to `CCCCCCCCCCCCCCCCCCCCCC(=O)OC[C@@H](COC(=O)CCCCCCCCCCCCCCC)OC(=O)CCCCCCCCCCCCCCCC` [TG 16:0_17:0_22:0] (ion (formula + adduct): [C58H112O6+NH4] 1+), for which the “TIMS collisional cross section” value by setting is: (sample type: Liver) 335 Å²; (sample type: plasma) 334.9 ± 0.42 Å².

In the case of `CCCCCCCCCCCCCCCCCCCC(=O)OC[C@@H](O)COP(=O)(O)OCCN` [LPE 20:0] (ion (formula + adduct): [C25H52NO7P+H] 1+), the “TIMS collisional cross section” value (sample type: HeLa) came to 229.2 Å².

Regarding `CC/C=C\C/C=C\C/C=C\C/C=C\C/C=C\C/C=C\CCC(=O)O[C@@H](CO)COC(=O)CCCCCCC/C=C\CCCCCCCC` [DG 18:1_22:6_0:0] (ion (formula + adduct): [C43H70O5+NH4] 1+), the “TIMS collisional cross section” value runs as follows: (sample type: HeLa) 270 Å²; (sample type: Liver) 269.9 Å².

With `CCCCCC/C=C\CCCCCCCC(=O)OC[C@H](CO)OC(=O)CCCCCCC/C=C\CCCCCC` [DG 16:1_16:1_0:0] (ion (formula + adduct): [C35H64O5+NH4] 1+), the “TIMS collisional cross section” value (sample type: HeLa) is 249 Å².

For the molecule `CCCCC/C=C\CCCCCCCC(=O)OC[C@H](COC(=O)CCCCCCC/C=C\CCCCCC)OC(=O)CCCCCCCCCCCCCCC` [TG 15:1_16:0_16:1] (ion (formula + adduct): [C50H92O6+NH4] 1+), the “TIMS collisional cross section” value stood at 307.4 Å² (sample type: Liver) and 307.1 Å² (sample type: plasma).

The values are drawn from the supplement of paper PMC6965134.
